Experimental data as given in paper PMC7773179, “Development and application of high-throughput screens for the discovery of compounds that disrupt ErbB4 signaling: Candidate cancer therapeutics” (PLoS ONE, 2020).

Tests used:
BaF3/EGFR+ErbB4 cells [1] = assay: IL3-dependent proliferation of BaF3/EGFR+ErbB4 cells, semi-automated MTT assay; conditions: for IC50: Mus musculus, BaF3, 120 h; for IC50 against 0.1 nM IL3: three independent trials, 120 h MTT, NA = not active
Method: As noted earlier, the BaF3/EGFR+ErbB4 cells are IL3 dependent and this dependency can be rescued by stimulation of ErbB4 coupling to cell proliferation [8]. Therefore, the specificity of each of the 19 candidate ErbB4 inhibitors was tested by assaying inhibition of ErbB4-dependent and IL3-dependent cellular proliferation in parallel.

ErbB4 = molecular target: T1, ErbB4 (Homo sapiens, UniProt Q15303); assay: phospho-ErbB4 sandwich ELISA: stimulation of ErbB4 tyrosine phosphorylation in CEM/ErbB4 cells; format: cell-based; conditions: for Emax: percentage of ErbB4 tyrosine phosphorylation stimulated by 10 nM NRG1β, read-out: ErbB4 Tyrosine Phosphorylation Emax ± SE; for EC50: semi-automated, 0–30 μM, at least three independent trials, read-out: ErbB4 Tyrosine Phosphorylation EC50 ± SE
T1 construct: expressed in transfected cells; host or cells: CEM/ErbB4 cells
T1 sequence (Q15303 26-1308): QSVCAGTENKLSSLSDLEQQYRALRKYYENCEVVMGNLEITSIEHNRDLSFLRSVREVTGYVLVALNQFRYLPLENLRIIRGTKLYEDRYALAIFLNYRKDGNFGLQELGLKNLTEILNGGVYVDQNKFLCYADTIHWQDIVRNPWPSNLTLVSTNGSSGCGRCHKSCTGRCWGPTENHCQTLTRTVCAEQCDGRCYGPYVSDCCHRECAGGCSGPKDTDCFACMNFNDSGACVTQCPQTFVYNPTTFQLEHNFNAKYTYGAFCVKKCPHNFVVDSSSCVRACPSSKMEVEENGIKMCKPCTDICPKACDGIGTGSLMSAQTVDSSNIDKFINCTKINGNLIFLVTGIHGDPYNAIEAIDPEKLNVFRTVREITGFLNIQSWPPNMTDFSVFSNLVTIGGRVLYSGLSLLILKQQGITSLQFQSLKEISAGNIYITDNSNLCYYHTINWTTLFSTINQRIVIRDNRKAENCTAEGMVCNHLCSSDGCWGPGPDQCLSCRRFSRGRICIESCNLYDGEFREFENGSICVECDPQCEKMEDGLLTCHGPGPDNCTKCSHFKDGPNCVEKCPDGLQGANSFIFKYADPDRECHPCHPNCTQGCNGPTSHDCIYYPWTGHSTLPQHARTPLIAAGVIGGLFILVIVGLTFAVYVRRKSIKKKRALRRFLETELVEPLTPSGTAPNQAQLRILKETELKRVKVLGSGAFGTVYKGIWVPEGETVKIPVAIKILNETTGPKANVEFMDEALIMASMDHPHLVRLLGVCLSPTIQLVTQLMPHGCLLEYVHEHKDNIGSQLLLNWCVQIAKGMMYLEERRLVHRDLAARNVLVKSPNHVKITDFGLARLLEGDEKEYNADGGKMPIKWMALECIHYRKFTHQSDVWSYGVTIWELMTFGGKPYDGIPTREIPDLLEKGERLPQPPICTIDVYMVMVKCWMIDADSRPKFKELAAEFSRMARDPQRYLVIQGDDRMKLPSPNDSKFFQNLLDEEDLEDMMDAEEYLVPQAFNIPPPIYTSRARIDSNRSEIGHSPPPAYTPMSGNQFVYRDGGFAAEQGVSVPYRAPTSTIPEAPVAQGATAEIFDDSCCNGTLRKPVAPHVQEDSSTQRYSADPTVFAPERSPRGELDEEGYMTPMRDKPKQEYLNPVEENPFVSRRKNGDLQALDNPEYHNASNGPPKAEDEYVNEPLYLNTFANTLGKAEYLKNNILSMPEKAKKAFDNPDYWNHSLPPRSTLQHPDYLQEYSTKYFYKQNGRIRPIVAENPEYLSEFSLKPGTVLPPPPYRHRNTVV
Source text: Our ultimate goal is the identification of ErbB4 partial agonists that inhibit coupling of ErbB4 to cell proliferation, preferably through stimulation of phosphorylation-dependent ErbB4 turnover and degradation. Thus, the first goal of these experiments is to develop and deploy an assay for stimulation of ErbB4 tyrosine phosphorylation. The CEM/ErbB4 cell line previously validated for assaying ligand-induced ErbB4 tyrosine phosphorylation was used to develop a 96-well assay for stimulation and inhibition of ErbB4 tyrosine phosphorylation. Briefly, ErbB4 tyrosine phosphorylation was assayed using a “sandwich” enzyme-linked immunosorbent assay (ELISA) kit (R&D Systems) that features an anti-ErbB4 capture antibody and an anti-phosphotyrosine detection antibody.
Lysates generated by a previously established protocol for stimulating ErbB4 tyrosine phosphorylation in CEM/ErbB4 cells were used to develop and evaluate the ELISA conditions. Briefly, the CEM/ErbB4 cells were starved for 24 hours in serum- and factor-free base medium (RPMI) before being stimulated for seven minutes on ice with NRG2β (full agonist positive control), NRG2β/Q43L (partial agonist positive control), or NRG2β diluent (mock stimulation negative control). The cells were then lysed, and the lysates were immediately assayed for ErbB4 tyrosine phosphorylation or stored at -80°C until assayed.
Ligand-induced ErbB4 tyrosine phosphorylation was stimulated using a published protocol. Briefly, the CEM/ErbB4 cells were starved for 24 hours in serum- and factor-free base medium (RPMI) before being stimulated for 7 minutes on ice with an ErbB4 ligand (NRG1β, NRG2β, or NRG2β/Q43L) or candidate small molecule ErbB4 partial agonists. The cells were then lysed using a published protocol, and the lysates were immediately assayed for ErbB4 tyrosine phosphorylation or stored at -80°C until assayed.
ErbB4 tyrosine phosphorylation was analyzed using a 96-well “sandwich” enzyme-linked immunosorbent assay (ELISA) kit from R&D Systems (Catalog number DYC2115-2), which features an anti-ErbB4 capture antibody and an anti-phosphotyrosine antibody that is coupled to horseradish peroxidase (HRP). First, each well in a 96-well flat-bottom plate (ELISA plate) was coated with the anti-ErbB4 capture antibody, which recognizes the amino terminus of ErbB4. Nonspecific binding sites were then treated with a blocking buffer (1% BSA in PBS). Lysate samples containing ErbB4 were then added to the wells and incubated to permit ErbB4 binding to the immobilized anti-ErbB4 antibody. Then, an anti-phosphotyrosine antibody tagged with HRP was used to detect and visualize the phosphorylated tyrosine residues of the immobilized ErbB4 molecules. Oxidation of 3,3´,5,5´-tetramethylbenzidine by HRP (stopped using sulfuric acid) is indicative of ErbB4 tyrosine phosphorylation and was detected by measuring absorption at 450 nm. The data generated during the course of validating these assay conditions can be found in a (S1 Data).
A Beckman Coulter Biomek 4000 automated liquid handling system was used to convert our standard, batch method for agonist stimulation of ErbB4 tyrosine phosphorylation to a semi-automated 96-well methodology. […] After stimulation, lysis buffer was added to each well and incubated for 20 minutes at 4°C with shaking. Following incubation, the plates were centrifuged at 3200 RCF for 20 minutes at 4°C.

BaF3/EGFR+ErbB4 cells [2] = assay: ErbB4-dependent (NRG1β-induced, IL3-independent) proliferation of BaF3/EGFR+ErbB4 cells, semi-automated MTT assay; format: cell-based, Mouse; conditions: for IC50: Mus musculus, BaF3, read-out: IC50 against 0.3 nM NRG1β, three independent trials; for IC50 / NRG1β Emax ± SE in the presence of candidate: 120 h MTT; for NRG1β Emax ± SE in the presence of candidate: increasing NRG1β, three trials; for selective and potent inhibition of ErbB4-dependent cell proliferation (in words): ErbB4-dependent versus IL3-dependent proliferation
Method: This proliferation is dependent upon exogenous ErbB4 expression.
As noted earlier, the BaF3/EGFR+ErbB4 cells are IL3 dependent and this dependency can be rescued by stimulation of ErbB4 coupling to cell proliferation. Therefore, the specificity of each of the 19 candidate ErbB4 inhibitors was tested by assaying inhibition of ErbB4-dependent and IL3-dependent cellular proliferation in parallel.

[3] = read-out: IC50 against 0.1 nM IL3
[4] = read-out: IC50 against 0.1 nM IL3, extrapolated value

SMILES	IC50 (BaF3/EGFR+ErbB4 cells [1]; [3]) [µM]	Emax (ErbB4) [%]	EC50 (ErbB4) [µM]	IC50 (BaF3/EGFR+ErbB4 cells [2]; NA = not active) [µM]	NRG1β Emax ± SE in the presence of candidate (BaF3/EGFR+ErbB4 cells [2]; candidate 30 μM) [AU]	IC50 against 0.1 nM IL3 (BaF3/EGFR+ErbB4 cells [1])	selective and potent inhibition of ErbB4-dependent cell proliferation (in words) (BaF3/EGFR+ErbB4 cells [2])	inhibition of NRG1β-stimulated ErbB4-dependent proliferation (in words) (BaF3/EGFR+ErbB4 cells [2]; candidate 30 μM)	IC50 (BaF3/EGFR+ErbB4 cells [1]; [4]) [µM]	IC50 (BaF3/EGFR+ErbB4 cells [2]; *Extrapolated value) [µM]
Cc1nn(-c2ccccc2)c2c1C(c1ccccc1F)SCC(=O)N2 (centres unmarked) [SR-33510]	29	1.2 ± 0.4	2 ± 0.8	11	0.03 ± 0.01	–	–	–	–	–
CCOC(=O)C1=C(N)OC2=C(C(=O)CC(C)(C)C2)C1C1CCCCC1 (centres unmarked) [SR-33491]	–	2.8 ± 0.4	0.68 ± 0.36	29	0.15 ± 0.02	no inhibition	selectively and potently inhibit	–	–	–
COc1cc(CNCC2CCNCC2)cc(Cl)c1OCc1ccc(C)cc1 [SR-33507]	0.72	2.9 ± 0.4	< 0.3	0.39	0	–	–	completely inhibits	–	–
O=C1NC2=Nc3ccccc3SC(c3ccccc3)=C2C(c2ccc(O)cc2)N1 (centres unmarked) [SR-33494]	–	2.3 ± 0.4	< 0.3	7	0	–	selectively and potently inhibit	–	32	–
CCCOc1ccc(C(=O)C(CCCCC(CN(C)C)C(=O)c2ccc(OCCC)cc2)CN(C)C)cc1 (centres unmarked) [SR-33486]	0.45	5.9 ± 2.8	< 0.3	0.11	0	–	selectively and potently inhibit	–	–	–
O=C(c1nn2c(c1Cl)NC(c1cccs1)CC2C(F)(F)F)N(Cc1ccccc1)Cc1ccccc1 (centres unmarked) [SR-33493]	15	2.1 ± 3.8	< 0.3	5.6	0	–	–	–	–	–
O=C1NC(=O)/C(=C\c2ccc(OCc3ccc4ccccc4c3)c(I)c2)N1 [SR-33498]	4.8	1.4 ± 0.4	1.5 ± 0.6	2.3	0	–	–	–	–	–
COc1ccc(C2CCCN2C(=O)c2c(-c3ccccc3Cl)noc2C)cc1 (centres unmarked) [SR-33509]	–	1.4 ± 0.3	0.38 ± 0.25	–	0.11 ± 0.02	fails to inhibit	–	–	–	32
O=[N+]([O-])c1ccc(CN2CCN(C3CCC(c4ccccc4)CC3)CC2)cc1 (centres unmarked) [SR-33497]	–	1.8 ± 0.5	< 0.3	–	0.09 ± 0.02	–	–	–	390	47
O=S(=O)(NCc1cccnc1)c1ccc(Br)cc1Br [SR-33485]	–	3 ± 0.9	< 0.3	13	0.01 ± 0.02	–	–	–	38	–
CCOc1ccc(CN(C(=O)[C@H](N)Cc2c[nH]c3ccccc23)C2CC2)cc1 [SR-33511]	13	5.2 ± 1	2.1 ± 1.3	6.8	0	–	–	–	–	–
O=C(Nc1cccc(O)c1)c1cc2nc(-c3ccccc3)cc(-c3ccccc3)n2n1 [SR-33487]	–	2.7 ± 0.2	< 0.3	6.8	0.07 ± 0.01	–	selectively and potently inhibit	–	2100	–
O=C(CC1c2ccccc2Oc2ccccc21)NCCOc1ccccc1 [SR-33492]	–	1.8 ± 0.2	4.1 ± 2.9	12	0.03 ± 0.01	–	selectively and potently inhibit	–	81	–
CCC(=O)NC(N(Cc1ccccc1)Cc1ccccc1)C(Cl)(Cl)Cl (centres unmarked) [SR-33483]	28	4.7 ± 1.1	0.47 ± 0.38	6	0	–	selectively and potently inhibit	–	–	–
